Where “and” joins values, the source holds several entries; their conditions need not be identical. Equal values may be shown once. Read-outs that look alike come from different tables or passages of the source. No end group written: not given here. Acr = acridine on the lysine ε-amine
Assays:
[1] = biological target: human DC-SIGN (Dendritic Cell-Specific Intracellular adhesion molecule-3 Grabbing Non-integrin) receptor, stably transfected in CHO cells (human) (UniProt Q9NNX6); assay: cell-based or functional assay
[2] = biological target: human DC-SIGN (Dendritic Cell-Specific Intracellular adhesion molecule-3 Grabbing Non-integrin) receptor, stably transfected in CHO cells (human) (UniProt Q9NNX6); assay: FACS of DC-SIGN CHO (+) and (-) cells after 24 hr at 37 C with Cy5-DNA glycopeptide polyplex
[3] = biological target: human DC-SIGN (Dendritic Cell-Specific Intracellular adhesion molecule-3 Grabbing Non-integrin) receptor, stably transfected in CHO cells (human) (UniProt Q9NNX6); assay: FACS of DC-SIGN CHO (+) and (-) cells after 24 hr with Cy5-DNA glycopeptide polyplex
DNA = DNA band shift and thiazole orange displacement assays of cysteine-flanked acridinylated peptides; format: binding
Procedure: CKacrKKacrC (SEQ ID NO: 103), CKacrRKacrC (SEQ ID NO: 104), CKacrLKacrC (SEQ ID NO: 105), and CKacrFKacrC (SEQ ID NO: 106) (where Kacr is a lysine modified with acridine at the ε-amine) (FIG. 33, Formula VII) were synthesized by SPPS and purified while monitoring the absorbance of acridine at 409 nm. Monomers were evaluated for DNA affinity by DNA band shift and thiazole orange displacement assays. DNA complexes with monomers were also evaluated for particle size and ζ-potential. […] Buffered incubations of monomer at pH 8.0 were used to encourage polymerization of peptides and poly-CKacrKKacrC (SEQ ID NO: 103) and poly-CKacrRKacrC (SEQ ID NO: 104) have been isolated.

[4] = QELS particle size and zeta potential of polyacridine-melittin polyplexes; format: physicochemical; details: mean particle size of peptide-DNA polyplex, 0.5 nmol of peptide per μg of DNA
Procedure: Particle size and zeta potential were determined by preparing 2 ml of polyplex in 5 mM Hepes pH 7.5 at a DNA concentration of 30 μg/ml with 15 nmols/ml of peptide (0.5 nmol of peptide per μg of DNA). Particle size was measured by quasi-elastic light scattering (QELS) at a scatter angle of 90° on a Brookhaven ZetaPlus particle sizer (Brookhaven Instruments Corporation, NY). The zeta potential was determined as the mean of ten measurements immediately following acquisition of the particle size.

Erythrocytes = assay: RBC hemolysis assay; format: cell-based, mice
Procedure: Whole blood was obtained from male ICR mice by heart puncture with heparinized 22 G needles and collected in conical tubes containing 10 ml of 0.15 M PBS (pH 7.4) prewarmed to 37° C. Erythrocytes were immediately separated from plasma by centrifugation at 2000 rpm for 2 min, washed three times with 10 ml of PBS, and then diluted to 1.5×10^8 cells/ml. Peptides were prepared at 15 μM and serially diluted to 10-0.01 μM, after which 100 μl was pipetted in triplicate into a MultiScreenHTS BV 96 well plate. Erythrocytes (50 μl, 7.5×10^6 cells) were added to the peptides and incubated at 37° C. for 1 h followed by filtration on a Multiscreen vacuum manifold (Millipore Corporation, Billerica, Mass.). The filtrate was measured for Abs410nm on a Biotech plate reader (Biotech Instruments Incorporated., Winooski, Vt.) and compared to the 100% hemolysis caused by replacing PBS with water. Peptide DNA polyplexes (1.5 nmols and 7.5 μg pGL3) were also assayed for hemolysis as described above.

[5] = test system: HepG2, 3T3, and CHO cells; assay: in vitro gene transfer (luciferase) in three cell lines; format: cell-based; details: all three cell lines; 0.5 nmol per μg of pGL3
Procedure: HepG2 cells (5×10^5) were plated on 6×35 mm wells and grown to approximately 50% confluency. Transfections were performed in MEM supplemented with 2% FBS, sodium pyruvate (1 mM), and penicillin and streptomycin (100 U and 100 μg/mL). Polyplexes were prepared at a DNA concentration of 30 μg/ml and a stoichiometry of 0.5 nmol peptide per μg of DNA in Hepes buffered mannitol (HBM). Polyplexes (10 μg of DNA in 0.3 ml of HBM) were added drop wise to wells in triplicate. After 24 hrs, the cells were washed twice with 2 ml of ice-cold phosphate-buffered saline (Ca^2+- and Mg^2+-free) and then treated with 0.5 ml of lysis buffer (25 mM Tris Chloride, pH 7.8, 1 mM EDTA, 8 mM magnesium chloride, and 1% Triton X-100) for 10 min at 4° C. Cell lysates were scraped, transferred to 1.5 mL microcentrifuge tubes, and centrifuged for 10 min at 13,000 g at 4° C. to pellet cell debris. Lysis buffer (300 μL), sodium-ATP (4.3 μL of a 165 mM solution at pH 7, 4° C.) were combined in a test tube, mixed briefly, and immediately placed in the luminometer. Luciferase relative light units were measured by a Lumat LB 9501 (Berthold Systems, Germany) with 10 s integration after automatic injection of 100 μL of 0.5 mM D-luciferin. […] Protein concentrations were measured by a BCA assay using bovine serum albumin as a standard. […]

pGL3 [6] = assay: Man 9 glycopeptide DNA band shift assay; format: binding; details: agarose gel
Procedure: pGL3 (1 μg) was combined with 0.05, 0.2, 0.5, and 1 nmol of Man 9 glycopeptide. Each sample was incubated for 30 min before loading onto an agarose gel, that was electrophoresed at 80 V for 60 min (Adami, R. C., Collard, W. T., Gupta, S. A., Kwok, K. Y., Bonadio, J., and Rice, K. G. (1998) Stability of Peptide-Condensed Plasmid DNA Formulations. Journal of Pharmaceutical Sciences 87, 678-683). The gel was stained with 0.1 mg per ml of ethidium bromide at 4° C. for 24 hrs, then photographed while illuminating on a transilluminator.

pGL3 [7] = assay: thiazole orange displacement assay of Man 9 glycopeptide; format: binding; details: pGL3 1 μg, 40 nM thiazole orange
Procedure: A control sample of pGL3 (1 μg) was combined with 40 nM thiazole orange in a total volume of 500 μl of 5 mM Hepes buffer pH 7.4. The Man 9 glycopeptide (0.2, 0.3, 0.4, 1 and 2 nmol) or Cys-(Acr-Lys)4 peptide (SEQ ID NO: 23) was added to pGL3 (1 μg) samples containing thiazole orange, and incubated for 30 min, followed by measuring the fluorescence intensity at excitation 500 nm and emission 530 nm (Wadhwa, M. S., Collard, W. T., Adami, R. C., McKenzie, D. L., and Rice, K. G. (1997) Peptide-mediated gene delivery: influence of peptide structure on gene expression. Bioconjugate Chemistry 8, 81-8). The percent fluorescence intensity relative to control was plotted versus the stoichiometry of glycopeptide or peptide added to DNA to determine the equivalence point.

[8] = test system: DC-SIGN (+) and (−) CHO cells; assay: Cy5-DNA glycopeptide polyplex uptake by FACS; format: cell-based, human; details: 24 hr 37° C.
Procedure: pGL3 plasmid (5 μg) was labeled with Label IT according to the manufacturer's instructions to prepare Cy5-DNA. The Man 9 glycopeptide (0.5 nmol) was combined with 1 μg Cy5-DNA in 60 μl of water and incubated for 30 min to form a polyplex. DC-SIGN (+) and (−) CHO cells (1×10^6) (Granelli-Pipemo, A., Pritsker, A., Pack, M., Shimeliovich, I., Arrighi, J. F., Park, C. G., Trumpfheller, C., Piguet, V., Moran, T. M., and Steinman, R. M. (2005) Dendritic Cell Specific Intercellular Adhesion Molecule 3-Grabbing Nonintegrin/CD209 Is Abundant on Macrophages in the Normal Human Lymph Node and Is Not Required for Dendritic Cell Stimulation of the Mixed Leukocyte Reaction. J Immunology 7, 4260-4273) were each plated in triplicate in 35 mm wells and grown in DMEM supplemented with 7% FBS and 1% nonessential amino acids for 24 hrs. CHO (+) and (−) cells were transfected for 24 hrs with 1 μg of Cy5-DNA polyplex. The CHO cells were lifted by treatment with 5 ml of 1 mM EDTA in PBS and concentrated by centrifugation by 2,000×g, before diluting to a final volume of 1 ml in PBS. The transfected CHO (+) and (−) cells were analyzed by FACS on a Becton Dickson LSRII with excitation 488 nm and emission 575 nm, and compared to untransfected CHO cells.

UniProt Q9NNX6, sequence (Q9NNX6 whole entry): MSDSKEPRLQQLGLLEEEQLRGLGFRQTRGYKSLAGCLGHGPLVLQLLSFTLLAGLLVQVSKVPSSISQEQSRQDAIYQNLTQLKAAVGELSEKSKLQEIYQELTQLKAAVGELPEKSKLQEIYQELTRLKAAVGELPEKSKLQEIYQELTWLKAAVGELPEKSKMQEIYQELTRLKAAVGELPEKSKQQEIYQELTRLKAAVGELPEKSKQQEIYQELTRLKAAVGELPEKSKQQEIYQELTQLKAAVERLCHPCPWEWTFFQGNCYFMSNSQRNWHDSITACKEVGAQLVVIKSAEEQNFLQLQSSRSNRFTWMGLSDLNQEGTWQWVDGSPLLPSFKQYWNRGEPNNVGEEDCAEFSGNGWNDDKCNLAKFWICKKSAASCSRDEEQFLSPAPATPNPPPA

## Man 9 glycopeptide (Man9GlcNAc2-Asn-Tyr-propionate maleimide conjugated to Cys-(Acr-Lys)4)
[1]
  in vitro gene transfer (luciferase expression) in CHO (+) versus CHO (-) cells: 100 fold
[2]
  fold fluorescence intensity (cell uptake), CHO (+) over CHO (-) cells: 10 to 50 fold
[3]
  fold fluorescence intensity, CHO (+) over CHO (-) cells: 10 fold

## CKacrRKacrC: cysteine-flanked acridinylated peptide, SEQ ID NO: 104 (CK(Acr)RK(Acr)C; cysteine pairing not given here)
DNA
  affinity for DNA: higher affinity for DNA

## CC[C@H](C)[C@H](NC(=O)CNC(=O)[C@H](CCCCN)NC(=O)[C@H](CCCCN)NC(=O)[C@H](Cc1c[nH]c2ccccc12)NC(=O)[C@@H](N)CSSC[C@H](NC(=O)[C@H](CCCNC(=N)N)NC(=O)[C@H](CCCCNC(C)=O)NC(=O)[C@H](CCCNC(=N)N)NC(=O)[C@H](CCCCNC(C)=O)NC(=O)[C@H](CCCNC(=N)N)NC(=O)[C@H](CCCCNC(C)=O)NC(=O)[C@H](CCCNC(=N)N)NC(=O)[C@H](CCCCNC(C)=O)NC(=O)[C@@H](N)Cc1c[nH]c2ccccc12)C(=O)O)C(=O)NCC(=O)N[C@@H](C)C(=O)N[C@H](C(=O)N[C@@H](CC(C)C)C(=O)N[C@@H](CCCCN)C(=O)N[C@H](C(=O)N[C@@H](CC(C)C)C(=O)N[C@H](C(=O)N[C@H](C(=O)NCC(=O)N[C@@H](CC(C)C)C(=O)N1CCC[C@H]1C(=O)N[C@@H](C)C(=O)N[C@@H](CC(C)C)C(=O)N[C@H](C(=O)N[C@@H](CO)C(=O)N[C@@H](CC(C)C)C(=O)N[C@H](C(=O)N[C@@H](CCCCN)C(=O)N[C@@H](CCCNC(=N)N)C(=O)N[C@@H](CCCCN)C(=O)N[C@@H](CCCNC(=N)N)C(=O)N[C@@H](CCC(N)=O)C(=O)N[C@@H](CCC(N)=O)C(=O)O)[C@@H](C)CC)[C@@H](C)CC)[C@@H](C)O)[C@@H](C)O)C(C)C)C(C)C [poly(Lys(Ac)-Arg)4-SS-melittin]
[4]
  Particle Size (nm): 177 nm
Erythrocytes; RBC hemolysis at pH 5.0, second value of the cell (pH 7.4:5.0), read-out: HL50 (μM) pH 5.0
  EC50: 7.7 µM
Erythrocytes; RBC hemolysis at pH 7.4, first value of the cell (pH 7.4:5.0), read-out: HL50 (μM) pH 7.4
  EC50: 5.6 µM
[5]
  gene transfer, fold less active than poly(Acr-Arg)4-SS-melittin: 100-1000 fold

## CKacrKKacrC: cysteine-flanked acridinylated peptide, Kacr = lysine modified with acridine at the ε-amine; SEQ ID NO: 103 (CK(Acr)KK(Acr)C; cysteine pairing not given here)
DNA
  affinity for DNA: higher affinity for DNA

## poly-CKacrKKacrC: disulfide polymer of CKacrKKacrC formed by buffered incubation at pH 8.0 (CK(Acr)KK(Acr)C; also: disulfide polymer formed at pH 8.0)
DNA
  affinity for DNA: greater affinity of the polymer for DNA than the monomer

## Man 9 glycopeptide: high mannose N-glycan Man 9 Mal (Tyr, propionate maleimide) conjugated to Cys-(Acr-Lys)4
pGL3 [6]
  stoichiometry at which the band shift was complete: ≥ 0.4 nmol of glycopeptide per μg of DNA
pGL3 [7]
  thiazole orange displacement, asymptote / equivalence point for polyplex formation: 0.4 nmol per μg of DNA
[8]
  cell uptake (fluorescence intensity), CHO (+) over CHO (−) cells: 10-50 fold and ~10 fold
